What was measured:
[1] = target: T1, PTPN2 (i.e., TC-PTP) (Homo sapiens, UniProt P17706); assay: Phosphatase activity assay (DiFMUP substrate), PTPN2; format: biochemical; settings: compounds binned ≤1 uM or >1 uM
T1 sequence (P17706 1-415): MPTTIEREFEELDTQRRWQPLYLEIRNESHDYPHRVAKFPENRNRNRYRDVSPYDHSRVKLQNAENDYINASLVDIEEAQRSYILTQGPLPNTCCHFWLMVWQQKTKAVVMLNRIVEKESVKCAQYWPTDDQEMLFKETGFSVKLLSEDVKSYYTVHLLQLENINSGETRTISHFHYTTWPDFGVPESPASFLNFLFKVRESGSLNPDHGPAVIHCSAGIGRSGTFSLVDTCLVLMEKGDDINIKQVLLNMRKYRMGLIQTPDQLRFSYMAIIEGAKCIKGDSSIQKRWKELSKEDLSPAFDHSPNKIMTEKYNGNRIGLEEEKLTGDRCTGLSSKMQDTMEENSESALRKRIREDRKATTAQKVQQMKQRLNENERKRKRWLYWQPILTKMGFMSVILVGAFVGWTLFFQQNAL
Summary of the method: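 Enzyme (e.g. PTPN2 0.025 ng/ul) mixed about 2 min with compound at 10 serial concentrations in 50 mM HEPES pH 7.5, 150 mM NaCl, 0.5 mM EDTA, 1 mM DTT, 0.001% Tween-20 at room temperature. DiFMUP added at each enzyme's Km (about 45 μM for PTPN2). DiFMU fluorescence (ex 360/em 450 nm) followed 15-30 min; IC50 from 4-parameter fit of rates.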

[2] = target: T2, PTPN1 (i.e., PTP1B) (Homo sapiens, UniProt P18031); assay: Phosphatase activity assay (DiFMUP substrate), PTP1B; format: biochemical; settings: compounds binned ≤1 uM or >1 uM
T2 sequence (P18031 1-435): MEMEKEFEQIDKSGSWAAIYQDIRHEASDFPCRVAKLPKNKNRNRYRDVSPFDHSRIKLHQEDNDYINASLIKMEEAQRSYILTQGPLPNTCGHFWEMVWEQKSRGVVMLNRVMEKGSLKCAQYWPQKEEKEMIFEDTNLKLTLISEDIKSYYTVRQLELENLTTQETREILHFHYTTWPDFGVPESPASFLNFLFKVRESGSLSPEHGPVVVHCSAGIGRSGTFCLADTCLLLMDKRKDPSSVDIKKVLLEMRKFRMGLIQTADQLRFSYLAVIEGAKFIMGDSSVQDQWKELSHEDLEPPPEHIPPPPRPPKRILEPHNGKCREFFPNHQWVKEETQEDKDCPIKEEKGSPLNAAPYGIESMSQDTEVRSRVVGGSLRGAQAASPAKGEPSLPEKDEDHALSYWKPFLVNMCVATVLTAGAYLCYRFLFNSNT
Summary of the method: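 First, serially diluted inhibitor is mixed about 2 minutes with enzyme in pH 7.5 HEPES/NaCl/EDTA/DTT/Tween-20 buffer. Next, DiFMUP is added at the enzyme's Km, approximately 45 μM for PTPN2. Finally, DiFMU appearance is read continuously at room temperature and rates are fitted for IC50.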

| Compound | IC50 [1] [nM] | IC50 [2] [nM] |
| --- | --- | --- |
| O=C1CN(c2c(O)ccc(-c3cc(CCC4CCCCC4)n[nH]3)c2F)S(=O)(=O)N1 [Compound 455, 5-(3-(3-(2-cyclohexylethyl)-1H-pyrazol-5-yl)-2-fluoro-6-hydroxyphenyl)-1,2,5-thiadiazolidin-3-one 1,1-dioxide] | ≤ 1000 | ≤ 1000 |
| CC(C)CNc1cccc(-c2ccc(O)c(N3CC(=O)NS3(=O)=O)c2F)c1 [Compound 137, 5-(2-fluoro-4-hydroxy-3′-(isobutylamino)-[1,1′-biphenyl]-3-yl)-1,2,5-thiadiazolidin-3-one 1,1-dioxide] | ≤ 1000 | ≤ 1000 |
| O=C1CN(c2c(O)ccc(-c3cnn(CC4CCCCC4)c3)c2F)S(=O)(=O)N1 [Compound 179, 5-(3-(1-(cyclohexylmethyl)-1H-pyrazol-4-yl)-2-fluoro-6-hydroxyphenyl)-1,2,5-thiadiazolidin-3-one 1,1-dioxide] | ≤ 1000 | ≤ 1000 |
| Cn1nc(-c2ccc(O)c(N3CC(=O)NS3(=O)=O)c2F)cc1CCC1CC1 [Compound 463, 5-(3-(5-(2-cyclopropylethyl)-1-methyl-1H-pyrazol-3-yl)-2-fluoro-6-hydroxyphenyl)-1,2,5-thiadiazolidin-3-one 1,1-dioxide] | ≤ 1000 | ≤ 1000 |
| O=C1CN(c2c(O)ccc(-c3cc(N4CCCOCC4)n[nH]3)c2F)S(=O)(=O)N1 [Compound 344, 5-(3-(3-(1,4-oxazepan-4-yl)-1H-pyrazol-5-yl)-2-fluoro-6-hydroxyphenyl)-1,2,5-thiadiazolidin-3-one 1,1-dioxide] | ≤ 1000 | ≤ 1000 |
| Cn1nc(-c2ccc(O)c(N3CC(=O)NS3(=O)=O)c2F)cc1C1CCCN1 (stereo not drawn) [Compound 468, 5-(2-fluoro-6-hydroxy-3-(1-methyl-5-(pyrrolidin-2-yl)-1H-pyrazol-3-yl)phenyl)-1,2,5-thiadiazolidin-3-one 1,1-dioxide] | > 1000 | ≤ 1000 |
| Nc1nc2ccc(-c3ccc(O)c(N4CC(=O)NS4(=O)=O)c3F)cc2o1 [Compound 191, 5-(3-(2-aminobenzo[d]oxazol-6-yl)-2-fluoro-6-hydroxyphenyl)-1,2,5-thiadiazolidin-3-one 1,1-dioxide] | ≤ 1000 | ≤ 1000 |
| O=C1CN(c2c(O)ccc(-c3cc(C(F)(F)F)n[nH]3)c2F)S(=O)(=O)N1 [Compound 247, 5-(2-fluoro-6-hydroxy-3-(3-(trifluoromethyl)-1H-pyrazol-5-yl)phenyl)-1,2,5-thiadiazolidin-3-one 1,1-dioxide] | ≤ 1000 | ≤ 1000 |
| COc1cc(-c2ccc(O)c(N3CC(=O)NS3(=O)=O)c2F)c(F)cn1 [Compound 206, 5-(2-fluoro-3-(5-fluoro-2-methoxypyridin-4-yl)-6-hydroxyphenyl)-1,2,5-thiadiazolidin-3-one 1,1-dioxide] | ≤ 1000 | ≤ 1000 |
| O=C1CN(c2c(O)ccc(-c3cnn(CCO)c3)c2F)S(=O)(=O)N1 [Compound 140, 5-(2-fluoro-6-hydroxy-3-(1-(2-hydroxyethyl)-1H-pyrazol-4-yl)phenyl)-1,2,5-thiadiazolidin-3-one 1,1-dioxide] | ≤ 1000 | ≤ 1000 |
| O=C1CN(c2c(O)ccc(-c3cn(-c4ccccc4)cn3)c2F)S(=O)(=O)N1 [Compound 190, 5-(2-fluoro-6-hydroxy-3-(1-phenyl-1H-imidazol-4-yl)phenyl)-1,2,5-thiadiazolidin-3-one 1,1-dioxide] | ≤ 1000 | ≤ 1000 |
| O=C1CN(c2c(O)ccc(-c3ccnc(N4CCCC4)c3)c2F)S(=O)(=O)N1 [Compound 162, 5-(2-fluoro-6-hydroxy-3-(2-(pyrrolidin-1-yl)pyridin-4-yl)phenyl)-1,2,5-thiadiazolidin-3-one 1,1-dioxide] | ≤ 1000 | ≤ 1000 |
| NCC1CCCN1c1cc(-c2ccc(O)c(N3CC(=O)NS3(=O)=O)c2F)[nH]n1 (stereo not drawn) [Compound 308, 5-(3-(3-(2-(aminomethyl)pyrrolidin-1-yl)-1H-pyrazol-5-yl)-2-fluoro-6-hydroxyphenyl)-1,2,5-thiadiazolidin-3-one 1,1-dioxide] | ≤ 1000 | ≤ 1000 |
| O=C1CN(c2c(O)ccc(-c3cnn(C(=O)NC4CC4)c3)c2F)S(=O)(=O)N1 [Compound 514, N-cyclopropyl-4-(3-(1,1-dioxido-4-oxo-1,2,5-thiadiazolidin-2-yl)-2-fluoro-4-hydroxyphenyl)-1H-pyrazole-1-carboxamide] | ≤ 1000 | ≤ 1000 |
| O=C1CN(c2c(O)ccc(C3=CC(CCc4ccccc4)NC3)c2F)S(=O)(=O)N1 (stereo not drawn) [Compound 473, 5-(2-fluoro-6-hydroxy-3-(5-phenethyl-2,5-dihydro-1H-pyrrol-3-yl)phenyl)-1,2,5-thiadiazolidin-3-one 1,1-dioxide] | ≤ 1000 | ≤ 1000 |
| COCCS(=O)(=O)Nc1ccc(-c2ccc(O)c(N3CC(=O)NS3(=O)=O)c2F)cc1 [Compound 443, N-(3′-(1,1-dioxido-4-oxo-1,2,5-thiadiazolidin-2-yl)-2′-fluoro-4′-hydroxy-[1,1′-biphenyl]-4-yl)-2-methoxyethane-1-sulfonamide] | ≤ 1000 | ≤ 1000 |
| O=C1CN(c2c(O)ccc(C3=CCCN(C4CC4)C3)c2F)S(=O)(=O)N1 [Compound 378, 5-(3-(1-cyclopropyl-1,2,5,6-tetrahydropyridin-3-yl)-2-fluoro-6-hydroxyphenyl)-1,2,5-thiadiazolidin-3-one 1,1-dioxide] | ≤ 1000 | ≤ 1000 |
| CC#Cc1cc(-c2ccc(O)c(N3CC(=O)NS3(=O)=O)c2F)[nH]n1 [Compound 354, 5-(2-fluoro-6-hydroxy-3-(3-(prop-1-yn-1-yl)-1H-pyrazol-5-yl)phenyl)-1,2,5-thiadiazolidin-3-one 1,1-dioxide] | ≤ 1000 | ≤ 1000 |
| N#Cc1ccccc1-n1cnc(-c2ccc(O)c(N3CC(=O)NS3(=O)=O)c2F)c1 [Compound 298, 2-(4-(3-(1,1-dioxido-4-oxo-1,2,5-thiadiazolidin-2-yl)-2-fluoro-4-hydroxyphenyl)-1H-imidazol-1-yl)benzonitrile] | ≤ 1000 | ≤ 1000 |
| O=C1CN(c2c(O)ccc(-c3ccc4ncccc4c3)c2F)S(=O)(=O)N1 [Compound 150, 5-(2-fluoro-6-hydroxy-3-(quinolin-6-yl)phenyl)-1,2,5-thiadiazolidin-3-one 1,1-dioxide] | ≤ 1000 | ≤ 1000 |
| O=C1CN(c2c(O)ccc(-c3cn(C(F)F)nc3F)c2F)S(=O)(=O)N1 [Compound 509, 5-(3-(1-(difluoromethyl)-3-fluoro-1H-pyrazol-4-yl)-2-fluoro-6-hydroxyphenyl)-1,2,5-thiadiazolidin-3-one 1,1-dioxide] | ≤ 1000 | ≤ 1000 |
| CN(C)C1(Cn2cc(-c3ccc(O)c(N4CC(=O)NS4(=O)=O)c3F)cn2)CCC1 [Compound 430, 5-(3-(1-((1-(dimethylamino)cyclobutyl)methyl)-1H-pyrazol-4-yl)-2-fluoro-6-hydroxyphenyl)-1,2,5-thiadiazolidin-3-one 1,1-dioxide] | ≤ 1000 | ≤ 1000 |
| O=C1CN(c2c(O)ccc(-c3cnn(CC(F)F)c3)c2F)S(=O)(=O)N1 [Compound 525, 5-(3-(1-(2,2-difluoroethyl)-1H-pyrazol-4-yl)-2-fluoro-6-hydroxyphenyl)-1,2,5-thiadiazolidin-3-one 1,1-dioxide] | ≤ 1000 | ≤ 1000 |
| CC(C)CCn1cc(-c2ccc(O)c(N3CC(=O)NS3(=O)=O)c2F)nn1 [Compound 219, 5-(2-fluoro-6-hydroxy-3-(1-isopentyl-1H-1,2,3-triazol-4-yl)phenyl)-1,2,5-thiadiazolidin-3-one 1,1-dioxide] | ≤ 1000 | ≤ 1000 |
| O=C1CN(c2c(O)ccc(-c3cc(N4CCCCC4)n[nH]3)c2F)S(=O)(=O)N1 [Compound 332, 5-(2-fluoro-6-hydroxy-3-(3-(piperidin-1-yl)-1H-pyrazol-5-yl)phenyl)-1,2,5-thiadiazolidin-3-one 1,1-dioxide] | ≤ 1000 | ≤ 1000 |
| O=C1CN(c2c(O)ccc(-c3cnn(Cc4cc(F)cc(F)c4)c3)c2F)S(=O)(=O)N1 [Compound 113, 5-(3-(1-(3,5-difluorobenzyl)-1H-pyrazol-4-yl)-2-fluoro-6-hydroxyphenyl)-1,2,5-thiadiazolidin-3-one 1,1-dioxide] | ≤ 1000 | ≤ 1000 |
| CC(C)Cc1cc(-c2ccc(O)c(N3CC(=O)NS3(=O)=O)c2F)[nH]n1 [Compound 370, 5-(2-fluoro-6-hydroxy-3-(3-isobutyl-1H-pyrazol-5-yl)phenyl)-1,2,5-thiadiazolidin-3-one 1,1-dioxide] | ≤ 1000 | ≤ 1000 |

— patent publication US20240398828A1, “HETERO-ATOM CONTAINING COMPOUNDS AND USES THEREOF” (Kumquat Biosciences Inc., priority 2021, published 2024)
